These results are taken from publication PMC10892288, “Early Stage Preclinical Formulation Strategies to Alter the Pharmacokinetic Profile of Two Small Molecule Therapeutics” (Pharmaceuticals, 2024).

Data set [1] can be described thus: Mouse IV infusion of G7883 by iPRECIO pump. The data set is classed as in vivo, female C57BL-6 mice. An excerpt: This is often a concern for molecules in early drug discovery stages. Various formulation and delivery strategies have been devised to modify the systemic PK profiles of drug molecules, encompassing nanoparticles, microparticles, lipid and polymer conjugation, implanted infusion pump device technologies, and subcutaneous depots. Here, we examined two strategies aimed at maintaining the drug concentration at a designed target concentration for the maximum duration potentially needed for proof of concept studies. The initial approach involved using an implantable device, the iPRECIO pump that allows for a controlled and sustained infusion, as opposed to a typical bolus IV injection. The infusion pump strategies can be a promising tool to achieve the desired delivery profile of a compound, given the solubility requirements based on the intended target release and PK profile. […]
All plasma and cell media concentrations of G7883 and G6893 were determined using liquid chromatography–tandem mass spectrometry after protein precipitation with acetonitrile and injection of the supernatant onto the column (Waters ACQUITY UPLC BEH C18 1.7 μm, 2.1 × 50 mm for G7883 and G6893). […] The lower limit of quantitation of the assay was 5.1 ng/mL, and the dilution quality control concentration was set at 10 ng/mL with acceptance criteria for accuracy and precision of 25%.

A short description of data set [2]: pKa (physiochemical properties). The data set is classed as physicochemical. An excerpt: Table 1 Physiochemical properties of […] and […]. | column: […]; […]

Take `Cc1nccnc1-c1nn2c(=O)cc(-c3ccc(C4CCCCC4)cc3)[nH]c2c1C(=O)N1CC(CF)C1` [G7883, 5-(4-cyclohexylphenyl)-3-[3-(fluoromethyl)azetidine-1-carbonyl]-2-(3-methylpyrazin-2-yl)-4H-pyrazolo[1,5-a]pyrimidin-7-one]: the “plasma concentration relative to target IC50” value in data set [1] (3.3 mg/mL in 20% DMSO, 80% PEG400, 1.54 mg/h.kg, over 176 h, mouse) is recorded as “plasma concentrations remained below the target IC50”. The “body weight over time” value in data set [1] (20% DMSO, 80% PEG400, mouse) is listed as “prevention of body weight loss over time”. In addition, the pKa (in general, the negative logarithm of the acid dissociation constant) in data set [2] was determined as 5.51.
